The supplement of paper PMC11061612

Columns and labels:
Assay in all cases: combination Emax (second highest fraction inhibited in the dose matrix, 72 h); higher = more inhibition; extreme values may be limits of the assay
[1] = tested on: OAW-28 (Ovarian Carcinoma)
In short: (§1)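 Bliss excess equals the observed combination effect minus the expected value EA + EB − EA·EB, where EA and EB are the effects of each agent alone. Combination Emax is the second-highest inhibition within the matrix. Inhibition was scaled from CellTiter-Glo 2.0 luminescence, with 0 set by vehicle wells and 1 by blank wells, after 72 hours of two-drug dosing of cells plated in 1536-well plates.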

[2] = tested on: SNU-407 (Colorectal Carcinoma)
In short: as §1

[3] = tested on: PL4 (Pancreatic Carcinoma)
In short: as §1

[4] = tested on: LCLC-103H (Non-Small Cell Lung Carcinoma)
In short: as §1

[5] = tested on: PA-TU-8988T (Pancreatic Carcinoma)
In short: as §1

KALS-1 (Glioblastoma) = tested on: KALS-1 (Glioblastoma)
In short: as §1

[6] = tested on: P32-ISH (Burkitt's Lymphoma)
In short: as §1

[7] = tested on: P30-OHK (B-Lymphoblastic Leukemia)
In short: as §1

[8] = tested on: COR-L88 (Small Cell Lung Carcinoma)
In short: as §1

[9] = tested on: NAMALWA (Burkitt's Lymphoma)
In short: as §1

[10] = tested on: SUP-M2 (T-Cell Non-Hodgkin's Lymphoma)
In short: as §1

SK-N-SH (Neuroblastoma) = tested on: SK-N-SH (Neuroblastoma)
In short: as §1

GAK (Melanoma) = tested on: GAK (Melanoma)
In short: as §1

T47D (Breast Carcinoma) = tested on: T47D (Breast Carcinoma)
In short: as §1

[11] = tested on: DBTRG-05MG (Glioblastoma)
In short: as §1

[12] = tested on: MONO-MAC-6 (Acute Myeloid Leukemia)
In short: as §1

[13] = tested on: MOLT-13 (T-Lymphoblastic Leukemia)
In short: as §1

[14] = tested on: T84 (Colorectal Carcinoma)
In short: as §1

[15] = tested on: NCI-H1876 (Small Cell Lung Carcinoma)
In short: as §1

[16] = tested on: MOLP-8 (Plasma Cell Myeloma)
In short: as §1

For `CN(CCO)CC[C@H](CSc1ccccc1)Nc1ccc(S(=O)(=O)NC(=O)c2ccc(N3CCC([C@@H](O)c4ccccc4-c4ccc(Cl)cc4)CC3)cc2)cc1S(=O)(=O)C(F)(F)F` [AZD4320] + Cn1cnc2c(F)c(Nc3ccc(Br)cc3Cl)c(C(=O)NOCCO)cc21 [Selumetinib] (first compound max 1 µM, 7x7, partner max 3 µM), the “combination Emax” value [1] was 0.984, the “combination Emax” value [2] was 0.57 and the “combination Emax” value [3] was 0.751. The “combination Emax” value [4] was 0.423, the “combination Emax” value [5] was 0.379 and the “combination Emax” value (KALS-1 (Glioblastoma)) was 0.449. For the same compound, the “combination Emax” value [6] was 0.801, the “combination Emax” value [7] was 0.99 and the “combination Emax” value [8] was 0.959. For the same compound, the “combination Emax” value [9] was 0.512, the “combination Emax” value [10] was 0.959 and the “combination Emax” value (SK-N-SH (Neuroblastoma)) was 0.995. For the same compound, the “combination Emax” value (GAK (Melanoma)) was 0.796, the “combination Emax” value (T47D (Breast Carcinoma)) was 0.314 and the “combination Emax” value [11] was 0.702. The “combination Emax” value [12] was 0.658, the “combination Emax” value [13] was 1 and the “combination Emax” value [14] was 0.319. The “combination Emax” value [15] was 1 and the “combination Emax” value [16] was 0.468.
With `C=CCn1c(=O)c2cnc(Nc3ccc(N4CCN(C)CC4)cc3)nc2n1-c1cccc(C(C)(C)O)n1` [AZD1775] + O=C(c1cc(Cc2n[nH]c(=O)c3ccccc23)ccc1F)N1CCN(C(=O)C2CC2)CC1 [Olaparib] (first compound max 1 µM, partner max 10 µM) the “combination Emax” value [1] was 0.251, the “combination Emax” value [2] was 0.465 and the “combination Emax” value [3] was 0.494. For the same compound, the “combination Emax” value [4] was 0.546, the “combination Emax” value [5] was 0.8 and the “combination Emax” value (KALS-1 (Glioblastoma)) was 0.896. For the same compound, the “combination Emax” value [6] was 0.997, the “combination Emax” value [7] was 0.748 and the “combination Emax” value [8] was 0.594. The “combination Emax” value [9] was 0.96, the “combination Emax” value [10] was 0.993 and the “combination Emax” value (SK-N-SH (Neuroblastoma)) was 0.882. For the same compound, the “combination Emax” value (GAK (Melanoma)) was 0.804, the “combination Emax” value (T47D (Breast Carcinoma)) was 0.362 and the “combination Emax” value [11] was 0.248. The “combination Emax” value [12] was 0.942, the “combination Emax” value [13] was 0.975 and the “combination Emax” value [14] was 0.745. For the same compound, the “combination Emax” value [15] was 0.968 and the “combination Emax” value [16] was 0.754.
In the case of `Cn1cnc2c(F)c(Nc3ccc(Br)cc3Cl)c(C(=O)NOCCO)cc21` [Selumetinib] + C=CCn1c(=O)c2cnc(Nc3ccc(N4CCN(C)CC4)cc3)nc2n1-c1cccc(C(C)(C)O)n1 [AZD1775] (first compound max 10 µM, partner max 1 µM), the “combination Emax” value [1] is reported as 0.395, the “combination Emax” value [2] is reported as 0.722 and the “combination Emax” value [3] is reported as 0.63. The “combination Emax” value [4] was 0.43, the “combination Emax” value [5] was 0.805 and the “combination Emax” value (KALS-1 (Glioblastoma)) was 0.755. For the same compound, the “combination Emax” value [6] was 0.999, the “combination Emax” value [7] was 0.675 and the “combination Emax” value [8] was 0.666. For the same compound, the “combination Emax” value [9] was 0.966, the “combination Emax” value [10] was 0.996 and the “combination Emax” value (SK-N-SH (Neuroblastoma)) was 0.381. The “combination Emax” value (GAK (Melanoma)) was 0.719, the “combination Emax” value (T47D (Breast Carcinoma)) was 0.34 and the “combination Emax” value [11] was 0.395. For the same compound, the “combination Emax” value [12] was 0.743, the “combination Emax” value [13] was 1 and the “combination Emax” value [14] was 0.401. The “combination Emax” value [15] was 0.982 and the “combination Emax” value [16] was 0.791.
`CCc1c2c(nc3ccc(O)cc13)-c1cc3c(c(=O)n1C2)COC(=O)[C@]3(O)CC` [SN-38] + CN(C)CCCOc1ccc(-c2ccc3ncc4c(c3c2)n(C2CCOCC2)c(=O)n4C)cn1 [AZD0156] (first compound max 0.3 µM, 7x7, partner max 1 µM) was tested, and the “combination Emax” value [1] was 0.791, the “combination Emax” value [2] was 0.416 and the “combination Emax” value [3] was 0.828. For the same compound, the “combination Emax” value [4] was 0.486, the “combination Emax” value [5] was 0.704 and the “combination Emax” value (KALS-1 (Glioblastoma)) was 0.596. The “combination Emax” value [6] was 1, the “combination Emax” value [7] was 0.973 and the “combination Emax” value [8] was 0.472. For the same compound, the “combination Emax” value [9] was 0.989, the “combination Emax” value [10] was 1 and the “combination Emax” value (SK-N-SH (Neuroblastoma)) was 0.909. For the same compound, the “combination Emax” value (GAK (Melanoma)) was 0.477, the “combination Emax” value (T47D (Breast Carcinoma)) was 0.643 and the “combination Emax” value [11] was 0.412. For the same compound, the “combination Emax” value [12] was 1, the “combination Emax” value [13] was 1 and the “combination Emax” value [14] was 0.644. For the same compound, the “combination Emax” value [15] was 1 and the “combination Emax” value [16] was 0.78.
For `COc1cccc2c1C(=O)c1c(O)c3c(c(O)c1C2=O)C[C@@](O)(C(=O)CO)C[C@@H]3O[C@H]1C[C@H](N)[C@H](O)[C@H](C)O1` [Doxorubicin] + Cc1cc2ncnn2cc1Nc1ncc2c(n1)n(C1CCOCC1)c(=O)n2C [AZD7648] (first compound max 1 µM, 7x7, partner max 10 µM), the “combination Emax” value [1] was 0.534, the “combination Emax” value [2] was 0.406 and the “combination Emax” value [3] was 0.535. The “combination Emax” value [4] was 0.85, the “combination Emax” value [5] was 0.791 and the “combination Emax” value (KALS-1 (Glioblastoma)) was 0.832. The “combination Emax” value [6] was 0.992, the “combination Emax” value [7] was 0.975 and the “combination Emax” value [8] was 0.455. For the same compound, the “combination Emax” value [9] was 0.976, the “combination Emax” value [10] was 1 and the “combination Emax” value (SK-N-SH (Neuroblastoma)) was 0.974. The “combination Emax” value (GAK (Melanoma)) was 0.803, the “combination Emax” value (T47D (Breast Carcinoma)) was 0.64 and the “combination Emax” value [11] was 0.588. The “combination Emax” value [12] was 0.999, the “combination Emax” value [13] was 0.986 and the “combination Emax” value [14] was 0.163. The “combination Emax” value [15] was 0.978 and the “combination Emax” value [16] was 0.915.
In the case of `CN(CCO)CC[C@H](CSc1ccccc1)Nc1ccc(S(=O)(=O)NC(=O)c2ccc(N3CCC([C@@H](O)c4ccccc4-c4ccc(Cl)cc4)CC3)cc2)cc1S(=O)(=O)C(F)(F)F` [AZD4320] + Cc1cc2ncnn2cc1Nc1ncc2c(n1)n(C1CCOCC1)c(=O)n2C [AZD7648] (first compound max 1 µM, 7x7, partner max 10 µM), the “combination Emax” value [1] is reported as 0.899, the “combination Emax” value [2] is reported as 0.721 and the “combination Emax” value [3] is reported as 0.421. The “combination Emax” value [4] was 0.223, the “combination Emax” value [5] was 0.23 and the “combination Emax” value (KALS-1 (Glioblastoma)) was 0.343. For the same compound, the “combination Emax” value [6] was 0.193, the “combination Emax” value [7] was 0.982 and the “combination Emax” value [8] was 0.964. The “combination Emax” value [9] was 0.323, the “combination Emax” value [10] was 0.47 and the “combination Emax” value (SK-N-SH (Neuroblastoma)) was 0.828. For the same compound, the “combination Emax” value (GAK (Melanoma)) was 0.314, the “combination Emax” value (T47D (Breast Carcinoma)) was 0.312 and the “combination Emax” value [11] was 0.827. For the same compound, the “combination Emax” value [12] was 0.393, the “combination Emax” value [13] was 0.951 and the “combination Emax” value [14] was 0.0764. The “combination Emax” value [15] was 0.925 and the “combination Emax” value [16] was 0.444.
